“And” between values parts separate entries of the source, which are not always exact repeats. Equal values may be shown once.
What was measured:
[1] = system: Rattus norvegicus; test: Effect of compound (50 mg/kg) on Blood Ethanol level in Ethanol loaded rats after 1 hr; assay type: functional
[2] = system: Rattus norvegicus; test: Effect of compound (50 mg/kg) on Blood Ethanol level in Ethanol loaded rats after 2 hr; assay type: functional
[3] = system: Rattus norvegicus; test: Effect of compound (50 mg/kg) on Blood Ethanol level in Ethanol loaded rats after 30 minutes; assay type: functional
[4] = system: Rattus norvegicus; test: Effect of compound (25 mg/kg) on Blood Ethanol level in Ethanol loaded rats after 1 hr; assay type: functional
[5] = system: Rattus norvegicus; test: Effect of compound (25 mg/kg) on Blood Ethanol level in Ethanol loaded rats after 2 hr; assay type: functional
[6] = system: Rattus norvegicus; test: Effect of compound (25 mg/kg) on Blood Ethanol level in Ethanol loaded rats after 30 minutes; assay type: functional
[7] = system: Rattus norvegicus; test: Effect of compound (50 mg/kg) on Gastric emptying in Ethanol loaded rats after 30 minutes; assay type: functional, Stomach
[8] = system: Rattus norvegicus; test: Effect of compound (50 mg/kg) on Gastric emptying time in Ethanol loaded rats after 30 minutes; assay type: functional, Stomach
[9] = system: Rattus norvegicus; test: Effect of compound (25 mg/kg) on Gastric emptying in Ethanol loaded rats after 30 minutes; assay type: functional, Stomach
[10] = system: Rattus norvegicus; test: Effect of compound (25 mg/kg) on Gastric emptying time in Ethanol loaded rats after 30 minutes; assay type: functional, Stomach
[11] = system: Rattus norvegicus; test: Effect of compound (25 mg/kg) on Serum glucose level in glucose loaded rats after 1 hr; assay type: functional, organism-based
[12] = system: Rattus norvegicus; test: Effect of compound (25 mg/kg) on Serum glucose level in glucose loaded rats after 2 hr; assay type: functional, organism-based
[13] = system: Rattus norvegicus; test: Effect of compound (25 mg/kg) on Serum glucose level in glucose loaded rats after 30 minutes; assay type: functional, organism-based
[14] = system: Rattus norvegicus; test: Effect of compound (50 mg/kg) on Serum glucose level in glucose loaded rats after 1 hr; assay type: functional, organism-based
[15] = system: Rattus norvegicus; test: Effect of compound (50 mg/kg) on Serum glucose level in glucose loaded rats after 2 hr; assay type: functional, organism-based
[16] = system: Rattus norvegicus; test: Effect of compound (50 mg/kg) on Serum glucose level in glucose loaded rats after 30 minutes; assay type: functional, organism-based
[17] = system: Rattus norvegicus; test: Effect of compound (12.5 mg/kg) on Blood Ethanol level in Ethanol loaded rats after 1 hr; assay type: functional
[18] = system: Rattus norvegicus; test: Effect of compound (12.5 mg/kg) on Blood Ethanol level in Ethanol loaded rats after 2 hr; assay type: functional
[19] = system: Rattus norvegicus; test: Effect of compound (12.5 mg/kg) on Blood Ethanol level in Ethanol loaded rats after 30 minutes; assay type: functional
[20] = system: Rattus norvegicus; test: Effect of compound (12.5 mg/kg) on Gastric emptying in Ethanol loaded rats after 30 minutes; assay type: functional, Stomach

Row | SMILES | Activity [1] | Blood ethanol level [2] | Blood ethanol concentration [3] | Activity [4] | Activity [5] | Blood ethanol concentration [6] | Inhibition [7] | Inhibition [8] | Inhibition [9] | Inhibition [10] | Serum glucose [11] | Serum glucose [12] | Serum glucose [13] | Serum glucose [14] | Serum glucose [15] | Serum glucose [16] | Activity [17] | Activity [18] | Activity [19] | Inhibition [20]
1 | C=C1C(=O)O[C@@H]2/C=C(\C)CC/C=C(\C)CC[C@@H]12 [COSTUNOLIDE] | 0.21 mg/mL | 0.19 mg/mL | 0.18 mg/mL | 0.2 mg/mL | 0.1 mg/mL | 0.23 mg/mL | 48.2% | 42.1% | 62.1% | 25.5% | 151 mg/dL | 117 mg/dL | 179 mg/dL | 150 mg/dL | 112 mg/dL | 171 mg/dL |  |  |  | 
2 | C=C1CC[C@H]2C(=C)CC[C@H]3C(=C)C(=O)O[C@@H]3[C@@H]12 [DEHYDROCOSTUSLACTONE] | 0.23 mg/mL | 0.19 mg/mL | 0.2 mg/mL | 0.4 mg/mL | 0.2 mg/mL | 0.57 mg/mL |  |  |  |  |  |  |  |  |  |  |  |  |  | 
3 | C=C1CCOC1=O [TULIPALINE A] | 0.1 mg/mL | 0.01 mg/mL | 0.04 mg/mL | 0.17 mg/mL | 0.01 mg/mL | 0.09 mg/mL |  |  | 33.5% and 57.2% |  |  |  |  |  |  |  | 0.7 mg/mL | 0.39 mg/mL | 0.32 mg/mL | 47.9% and 38.8%
4 | C=C1C(=O)O[C@@H]2[C@H]3C(C)=CC[C@@H](O)[C@]3(C)CC[C@@H]12 [SANTAMARIN] | 0.21 mg/mL | 0.18 mg/mL | 0.2 mg/mL | 0.43 mg/mL | 0.2 mg/mL | 0.4 mg/mL |  |  |  |  |  |  |  |  |  |  |  |  |  | 
5 | C=C1CCC[C@]2(C)CC[C@@H](C(C)(C)O)C[C@@H]12 [BETA-EUDESMOL] | 0.73 mg/mL | 0.2 mg/mL | 0.77 mg/mL | 0.7 mg/mL | 0.2 mg/mL | 0.79 mg/mL |  |  |  |  |  |  |  |  |  |  |  |  |  | 

Reference: ChEMBL document CHEMBL1132523, “Preventive effect of sesquiterpenes from bay leaf on blood ethanol elevation in ethanol-loaded rat: structure requirement and suppression of gastric emptying” (1999)
